Experimental data from patent US10499642B2, “Isoxazoline-substituted benzamides and analogues as insecticides” (SYNGENTA PARTICIPATIONS AG, priority 2015, dated 2019).
Where two headings read alike, the source gives them in different places.

What was measured:
Format in all cases: in vivo
Diabrotica Balteata = test: Diabrotica balteata (corn root worm) maize sprout test; details: 96 h, read-out: effect in at least one of the two categories (mortality or growth inhibition)
Description: Diabrotica Balteata, (Corn Root Worm)
Maize sprouts, placed on an agar layer in 24-well microtiter plates were treated with aqueous test solutions prepared from 10′000 ppm DMSO stock solutions by spraying. After drying, the plates were infested with L2 larvae (6 to 10 per well). The samples were assessed for mortality and growth inhibition in comparison to untreated samples 4 days after infestation. The following compounds gave an effect of at least 80% in at least one of the two categories (mortality or growth inhibition) at an application rate of 200 ppm: […]

Spodoptera littoralis = Spodoptera littoralis (Egyptian cotton leaf worm) cotton leaf disc test; details: foliar, 72 h, read-out: control (at least one of mortality, anti-feedant effect, and growth inhibition)
Description: Spodoptera littoralis (Egyptian Cotton Leaf Worm)
Cotton leaf discs were placed on agar in 24-well microtiter plates and sprayed with aqueous test solutions prepared from 10′000 ppm DMSO stock solutions. After drying the leaf discs were infested with five L1 larvae. The samples were assessed for mortality, anti-feedant effect, and growth inhibition in comparison to untreated samples 3 days after infestation. Control of Spodoptera littoralis by a test sample is when at least one of mortality, anti-feedant effect, and growth inhibition is higher than the untreated sample.

Tetranychus urticae = Tetranychus urticae (two-spotted spider mite) bean leaf disc test; details: foliar, 192 h
Description: Tetranychus urticae (Two-Spotted Spider Mite):
Bean leaf discs on agar in 24-well microtiter plates were sprayed with aqueous test solutions prepared from 10′000 ppm DMSO stock solutions. After drying the leaf discs were infested with a mite population of mixed ages. The samples were assessed for mortality on mixed population (mobile stages) 8 days after infestation.

Myzus persicae = Myzus persicae (green peach aphid) sunflower leaf disc test; details: foliar, 144 h
Description: Myzus persicae (Green Peach Aphid):
Sunflower leaf discs were placed on agar in a 24-well microtiter plate and sprayed with test solutions at an application rate of 200 ppm. After drying, the leaf discs were infested with an aphid population of mixed ages. After an incubation period of 6 days after treatment, samples were checked for mortality. The following compounds gave at least 80% mortality of Myzus persicae: […]

Thrips tabaci = Thrips tabaci (onion thrips) sunflower leaf disc test; details: foliar, 144 h
Description: Thrips tabaci (Onion Thrips):
Sunflower leaf discs were placed on agar in 24-well microtiter plates and sprayed with aqueous test solutions prepared from 10′000 ppm DMSO stock solutions. After drying the leaf discs were infested with a thrips population of mixed ages. The samples were assessed for mortality 6 days after infestation.

Plutella xylostella = Plutella xylostella (diamond back moth) artificial diet test; details: 120 h, read-out: effect in at least one of the two categories (mortality or growth inhibition)
Description: Plutella xylostella (Diamond Back Moth):
24-well microtiter plates with artificial diet were treated with aqueous test solutions prepared from 10′000 ppm DMSO stock solutions by pipetting. After drying, the plates were infested with L2 larvae (10 to 15 per well). The samples were assessed for mortality and growth inhibition in comparison to untreated samples 5 days after infestation. The following compounds gave an effect of at least 80% in at least one of the two categories (mortality or growth inhibition) at an application rate of 200 ppm: […]

CC1=NOC(NC(=O)c2ccc(C3=NO[C@@](c4cc(Cl)c(Cl)c(Cl)c4)(C(F)(F)F)C3)cc2C)C1 (stereo partly drawn) [Compound A027, 2-methyl-N-(3-methyl-4,5-dihydroisoxazol-5-yl)-4-[(5S)-5-(3,4,5-trichlorophenyl)-5-(trifluoromethyl)-4H-isoxazol-3-yl]benzamide]
≥ 80%: percent effect (mortality or growth inhibition) at 200 ppm (Diabrotica Balteata) | percent control (mortality, anti-feedant effect or growth inhibition) at 200 ppm (Spodoptera littoralis) | mortality at 200 ppm (Tetranychus urticae) | mortality at 200 ppm (Myzus persicae) | mortality at 200 ppm (Thrips tabaci) | percent effect (mortality or growth inhibition) at 200 ppm (Plutella xylostella)

Cc1cc(C2=NO[C@@](c3cc(Cl)cc(Cl)c3)(C(F)(F)F)C2)ccc1C(=O)NC1CC(C(F)(F)F)=NO1 (stereo partly drawn) [Compound A136, 4-[(5S)-5-(3,5-dichlorophenyl)-5-(trifluoromethyl)-4H-isoxazol-3-yl]-2-methyl-N-[3-(trifluoromethyl)-4,5-dihydroisoxazol-5-yl]benzamide]
≥ 80%: percent effect (mortality or growth inhibition) at 200 ppm (Diabrotica Balteata) | percent control (mortality, anti-feedant effect or growth inhibition) at 200 ppm (Spodoptera littoralis) | mortality at 200 ppm (Tetranychus urticae) | mortality at 200 ppm (Myzus persicae) | mortality at 200 ppm (Thrips tabaci) | percent effect (mortality or growth inhibition) at 200 ppm (Plutella xylostella)

CCOC1=NOC(N(C(=O)OC(C)(C)C)C(=O)c2ccc(C3=NO[C@@](c4cc(Cl)c(F)c(Cl)c4)(C(F)(F)F)C3)cc2C)C1 (stereo partly drawn) [Compound A132, tert-butyl N-[4-[(5S)-5-(3,5-dichloro-4-fluoro-phenyl)-5-(trifluoromethyl)-4H-isoxazol-3-yl]-2-methyl-benzoyl]-N-(3-ethoxy-4,5-dihydroisoxazol-5-yl)carbamate]
≥ 80%: percent effect (mortality or growth inhibition) at 200 ppm (Diabrotica Balteata) | percent control (mortality, anti-feedant effect or growth inhibition) at 200 ppm (Spodoptera littoralis) | mortality at 200 ppm (Tetranychus urticae) | mortality at 200 ppm (Myzus persicae) | mortality at 200 ppm (Thrips tabaci) | percent effect (mortality or growth inhibition) at 200 ppm (Plutella xylostella)

CCC1=NOC(NC(=O)c2ccc(C3=NO[C@@](c4cc(Cl)cc(Cl)c4)(C(F)(F)F)C3)cc2C)C1 (stereo partly drawn) [Compound A137]
≥ 80%: percent effect (mortality or growth inhibition) at 200 ppm (Diabrotica Balteata) | percent control (mortality, anti-feedant effect or growth inhibition) at 200 ppm (Spodoptera littoralis) | mortality at 200 ppm (Tetranychus urticae) | mortality at 200 ppm (Myzus persicae) | mortality at 200 ppm (Thrips tabaci) | percent effect (mortality or growth inhibition) at 200 ppm (Plutella xylostella)

Cc1cc(C2=NO[C@@](c3cc(Cl)c(F)c(Cl)c3)(C(F)(F)F)C2)ccc1C(=O)NC1CC(OCC(F)F)=NO1 (stereo partly drawn) [Compound A071]
≥ 80%: percent effect (mortality or growth inhibition) at 200 ppm (Diabrotica Balteata) | percent control (mortality, anti-feedant effect or growth inhibition) at 200 ppm (Spodoptera littoralis) | mortality at 200 ppm (Tetranychus urticae) | mortality at 200 ppm (Myzus persicae) | mortality at 200 ppm (Thrips tabaci) | percent effect (mortality or growth inhibition) at 200 ppm (Plutella xylostella)

Cc1cc(C2=NO[C@@](c3cc(Cl)c(F)c(Cl)c3)(C(F)(F)F)C2)ccc1C(=O)NC1CC(OCC(F)(F)C(F)C(F)(F)F)=NO1 (stereo partly drawn) [Compound A075]
≥ 80%: percent effect (mortality or growth inhibition) at 200 ppm (Diabrotica Balteata) | percent control (mortality, anti-feedant effect or growth inhibition) at 200 ppm (Spodoptera littoralis) | mortality at 200 ppm (Tetranychus urticae) | mortality at 200 ppm (Myzus persicae) | mortality at 200 ppm (Thrips tabaci) | percent effect (mortality or growth inhibition) at 200 ppm (Plutella xylostella)

Cc1cc(C2=NO[C@@](c3cc(Cl)c(Cl)c(Cl)c3)(C(F)(F)F)C2)ccc1C(=O)NC1CC(OCC(F)(F)F)=NO1 (stereo partly drawn) [Compound A129, 2-methyl-4-[(5S)-5-(3,4,5-trichlorophenyl)-5-(trifluoromethyl)-4H-isoxazol-3-yl]-N-[3-(2,2,2-trifluoroethoxy)-4,5-dihydroisoxazol-5-yl]benzamide]
≥ 80%: percent effect (mortality or growth inhibition) at 200 ppm (Diabrotica Balteata) | percent control (mortality, anti-feedant effect or growth inhibition) at 200 ppm (Spodoptera littoralis) | mortality at 200 ppm (Tetranychus urticae) | mortality at 200 ppm (Myzus persicae) | mortality at 200 ppm (Thrips tabaci) | percent effect (mortality or growth inhibition) at 200 ppm (Plutella xylostella)

CC1=NOC(NC(=O)c2ccc(C3=NO[C@@](c4cc(Br)cc(C(F)(F)F)c4)(C(F)(F)F)C3)cc2C)C1 (stereo partly drawn) [Compound A029, 4-[(5S)-5-[3-bromo-5-(trifluoromethyl)phenyl]-5-(trifluoromethyl)-4H-isoxazol-3-yl]-2-methyl-N-(3-methyl-4,5-dihydroisoxazol-5-yl)benzamide]
≥ 80%: percent effect (mortality or growth inhibition) at 200 ppm (Diabrotica Balteata; application rate 200 ppm, maize sprouts, L2 larvae, 4 days after infestation) | percent control (mortality, anti-feedant effect or growth inhibition) at 200 ppm (Spodoptera littoralis; application rate 200 ppm, cotton leaf discs, L1 larvae, 3 days after infestation) | mortality at 200 ppm (Tetranychus urticae; application rate 200 ppm, bean leaf discs, mixed population (mobile stages), 8 days after infestation, read-out: mortality) | mortality at 200 ppm (Myzus persicae; application rate 200 ppm, sunflower leaf discs, population of mixed ages, 6 days after treatment, read-out: mortality) | mortality at 200 ppm (Thrips tabaci; application rate 200 ppm, sunflower leaf discs, population of mixed ages, 6 days after infestation, read-out: mortality) | percent effect (mortality or growth inhibition) at 200 ppm (Plutella xylostella; application rate 200 ppm, artificial diet, L2 larvae, 5 days after infestation)

COC1=NOC(NC(=O)c2ccc(C3=NO[C@@](c4cc(Cl)c(Cl)c(Cl)c4)(C(F)(F)F)C3)cc2C)C1 (stereo partly drawn) [Compound A041]
≥ 80%: percent effect (mortality or growth inhibition) at 200 ppm (Diabrotica Balteata) | percent control (mortality, anti-feedant effect or growth inhibition) at 200 ppm (Spodoptera littoralis) | mortality at 200 ppm (Tetranychus urticae) | mortality at 200 ppm (Myzus persicae) | mortality at 200 ppm (Thrips tabaci) | percent effect (mortality or growth inhibition) at 200 ppm (Plutella xylostella)

CO/N=C/C1=NOC(NC(=O)c2ccc(C3=NO[C@@](c4cc(Cl)c(F)c(Cl)c4)(C(F)(F)F)C3)cc2C)C1 (stereo partly drawn) [Compound A119, 4-[(5S)-5-(3,5-dichloro-4-fluoro-phenyl)-5-(trifluoromethyl)-4H-isoxazol-3-yl]-N-[3-[(E)-methoxyiminomethyl]-4,5-dihydroisoxazol-5-yl]-2-methyl-benzamide]
≥ 80%: percent effect (mortality or growth inhibition) at 200 ppm (Diabrotica Balteata) | percent control (mortality, anti-feedant effect or growth inhibition) at 200 ppm (Spodoptera littoralis) | mortality at 200 ppm (Tetranychus urticae) | mortality at 200 ppm (Myzus persicae) | mortality at 200 ppm (Thrips tabaci) | percent effect (mortality or growth inhibition) at 200 ppm (Plutella xylostella)

CC(=O)C1=NOC(N(C=O)C(=O)c2ccc(C3=NO[C@@](c4cc(Cl)c(F)c(Cl)c4)(C(F)(F)F)C3)cc2C)C1 (stereo partly drawn) [Compound A014, N-(3-acetyl-4,5-dihydroisoxazol-5-yl)-4-[(5S)-5-(3,5-dichloro-4-fluoro-phenyl)-5-(trifluoromethyl)-4H-isoxazol-3-yl]-N-formyl-2-methyl-benzamide]
≥ 80%: percent effect (mortality or growth inhibition) at 200 ppm (Diabrotica Balteata) | percent control (mortality, anti-feedant effect or growth inhibition) at 200 ppm (Spodoptera littoralis) | mortality at 200 ppm (Tetranychus urticae) | mortality at 200 ppm (Myzus persicae) | mortality at 200 ppm (Thrips tabaci) | percent effect (mortality or growth inhibition) at 200 ppm (Plutella xylostella)

CCC1=NOC(N(C=O)C(=O)c2ccc(C3=NO[C@@](c4cc(Cl)cc(Cl)c4)(C(F)(F)F)C3)cc2C)C1 (stereo partly drawn) [Compound A139]
≥ 80%: percent effect (mortality or growth inhibition) at 200 ppm (Diabrotica Balteata) | percent control (mortality, anti-feedant effect or growth inhibition) at 200 ppm (Spodoptera littoralis) | mortality at 200 ppm (Tetranychus urticae) | mortality at 200 ppm (Myzus persicae) | mortality at 200 ppm (Thrips tabaci) | percent effect (mortality or growth inhibition) at 200 ppm (Plutella xylostella)
